# Laboratory results as given in ChEMBL document CHEMBL2203072, “Enhanced anti-influenza agents conjugated with anti-inflammatory activity” (J Med Chem, 2012).
# The source made the active and inactive calls. The calls are words filed in the database; no cut-off is given here.
# How the values were obtained:
# [1] = test system: MDCK; assay: Cytotoxicity against MDCK cells at 100 uM; assay type: cell-based, Canis lupus familiaris; conditions: dog
# [2] = biological target: Neuraminidase (Influenza A virus (strain A/Wilson-Smith/1933 H1N1) (Influenza A virus(strain A/WS/1933 H1N1)), UniProt P03470); assay: Inhibition of Influenza A virus A/WSN/1933(H1N1)) neuraminidase in the presence of 2'-(4-methyl-umbelliferyl)-alphaD-N-acetylneuraminic acid substrate after 10 mins by fluorometric assay
# Sequence of Neuraminidase (Influenza A virus (strain A/Wilson-Smith/1933 H1N1) (Influenza A virus(strain A/WS/1933 H1N1)), UniProt P03470) (P03470 whole entry): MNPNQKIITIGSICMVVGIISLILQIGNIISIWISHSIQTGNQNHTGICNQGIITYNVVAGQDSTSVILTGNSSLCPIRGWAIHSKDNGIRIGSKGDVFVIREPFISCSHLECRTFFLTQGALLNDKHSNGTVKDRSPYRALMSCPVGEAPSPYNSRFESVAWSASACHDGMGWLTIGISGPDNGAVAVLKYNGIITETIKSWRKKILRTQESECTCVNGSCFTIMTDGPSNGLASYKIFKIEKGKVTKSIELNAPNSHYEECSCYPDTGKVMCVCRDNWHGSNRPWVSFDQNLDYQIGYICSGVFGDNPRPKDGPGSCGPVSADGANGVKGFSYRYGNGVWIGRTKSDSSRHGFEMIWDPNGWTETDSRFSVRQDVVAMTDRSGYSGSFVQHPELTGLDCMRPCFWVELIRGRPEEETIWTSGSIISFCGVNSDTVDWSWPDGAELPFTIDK
# [3] = test system: Influenza A virus; assay: Antiviral activity against Influenza A virus (A/WSN/1933(H1N1)) infected in MDCK cells assessed as inhibition of virus induced cytopathic effect; assay type: functional, organism-based
# [4] = test system: Plasma; assay: Metabolic stability in Sprague-Dawley rat plasma after 24 hrs by MALDI-TOF analysis; assay type: ADME, cell-free
# [5] = test system: Plasma; assay: Metabolic stability in Sprague-Dawley rat plasma after 24 hrs by LC-QTOF MS analysis; assay type: ADME, cell-free
# [6] = test system: Influenza A virus; assay: Antiviral activity against Influenza A virus (A/VietNam/1194/2004(H5N1)) NIBRG-14 infected in BALB/c mouse assessed as protection from virus-induced death at 12 umol/kg/day, intranasally administered bid on days 1 to 4 and day 0 of infection measured over 14 days; assay type: functional, organism-based
# [7] = test system: Influenza A virus; assay: Antiviral activity against Influenza A virus (A/California/07/2009(H1N1)) infected in BALB/c mouse assessed as protection from virus-induced death at 1.2 umol/kg/day, intranasally administered bid on days 1 to 4 and day 0 of infection measured after 14 days; assay type: functional
# [8] = test system: Influenza A virus; assay: Antiviral activity against Influenza A virus (A/California/07/2009(H1N1)) infected in BALB/c mouse assessed as protection from virus-induced death at 0.012 umol/kg/day, intranasally administered bid on days 1 to 4 and day 0 of infection measured over 14 days; assay type: functional
# [9] = test system: Influenza A virus; assay: Antiviral activity against Influenza A virus (A/VietNam/1194/2004(H5N1)) NIBRG-14 infected in BALB/c mouse assessed as protection from virus-induced death at 1.2 umol/kg/day, intranasally administered bid on days 1 to 4 and day 0 of infection measured over 14 days; assay type: functional, organism-based
# [10] = test system: Influenza A virus; assay: Antiviral activity against Influenza A virus (A/California/07/2009(H1N1)) infected in BALB/c mouse assessed as protection from virus-induced death at 0.12 umol/kg/day, intranasally administered bid on days 1 to 4 and day 0 of infection measured over 14 days; assay type: functional
# [11] = test system: Mus musculus; assay: Antiinflammatory activity in mouse infected with Influenza A virus (A/VietNam/1194/2004(H5N1)) NIBRG-14 assessed as reduction in IL6 level in serum at 12 umol/kg/day, intranasally administered after 72 hrs by ELISA; assay type: functional, organism-based
# [12] = test system: Mus musculus; assay: Antiinflammatory activity in mouse infected with Influenza A virus (A/VietNam/1194/2004(H5N1)) NIBRG-14 assessed as reduction in IFN-gamma level in serum at 12 umol/kg/day, intranasally administered after 72 hrs by ELISA; assay type: functional, organism-based
# [13] = test system: Influenza A virus; assay: Antiviral activity against Influenza A virus (A/California/07/2009(H1N1)) infected in BALB/c mouse assessed as protection from virus-induced death at 1.2 umol/kg/day, intranasally administered bid on days 1 to 4 and day 0 of infection measured after 12 days; assay type: functional, organism-based
# [14] = test system: Influenza A virus; assay: Antiviral activity against Influenza A virus (A/California/07/2009(H1N1)) infected in BALB/c mouse assessed as protection from virus-induced death at 12 umol/kg/day, intranasally administered bid on days 1 to 4 and day 0 of infection measured over 14 days; assay type: functional, organism-based
# [15] = test system: Plasma; assay: Metabolic stability in Sprague-Dawley rat plasma assessed as release of zanamivir and caffiec acid after 24 hrs by LC-QTOF MS analysis; assay type: ADME, cell-free
# [16] = test system: Plasma; assay: Metabolic stability in Sprague-Dawley rat plasma assessed as release of zanamivir and caffiec acid after 24 hrs by MALDI-TOF analysis; assay type: ADME, cell-free
# [17] = test system: Influenza A virus; assay: Antiviral activity against recombinant Influenza A virus (A/VietNam/1194/2004(H5N1)) NIBRG-14 assessed as inhibition of virus induced cytopathic effect; assay type: functional, organism-based
# [18] = test system: Plasma; assay: Metabolic stability in Sprague-Dawley rat plasma assessed as compound degradation after 24 hrs by MALDI-TOF analysis; assay type: ADME, cell-free
# [19] = test system: Plasma; assay: Metabolic stability in Sprague-Dawley rat plasma assessed as compound degradation after 24 hrs by LC-QTOF MS analysis; assay type: ADME, cell-free
# [20] = test system: RAW264.7; assay: Antiinflammatory activity in LPS-activated mouse RAW264.7 cells assessed as inhibition of LPS induced IL6 production treated 30 mins prior to LPS challenge measured after 6 hrs by RT-PCR analysis; assay type: functional, cell-based
# [21] = test system: RAW264.7; assay: Antiinflammatory activity in LPS-activated mouse RAW264.7 cells assessed as inhibition of LPS induced TNFalpha production treated 30 mins prior to LPS challenge measured after 6 hrs by RT-PCR analysis; assay type: functional, cell-based
# [22] = test system: Influenza A virus; assay: Antiviral activity against Influenza A virus (A/California/07/2009(H1N1)) infected in BALB/c mouse assessed as protection from virus-induced death at 0.0012 umol/kg/day, intranasally administered bid on days 1 to 4 and day 0 of infection measured over 14 days; assay type: functional, organism-based
# [23] = test system: Plasma; assay: Metabolic stability in Sprague-Dawley rat plasma assessed as formation of compound 6 after 24 hrs by LC-QTOF MS analysis; assay type: ADME, cell-free
# [24] = test system: Plasma; assay: Metabolic stability in Sprague-Dawley rat plasma assessed as formation of compound 6 after 24 hrs by MALDI-TOF analysis; assay type: ADME, cell-free
# [25] = test system: Influenza A virus; assay: Ratio of zanamivir EC50 to compound EC50 for Influenza A virus (A/VietNam/1194/2004(H5N1)) NIBRG-14; assay type: functional
SMILES,Activity [1],IC50 [2] [nM],EC50 [3] [nM],other results
CC(=O)N[C@H]1[C@H]([C@H](OC(=O)NCCCNC(=O)c2ccc3ccccc3c2O)[C@H](O)CO)OC(C(=O)O)=C[C@@H]1NC(=N)N,Non-toxic,3.1,6.6,–
CC(=O)N[C@H]1[C@H]([C@H](OC(=O)NCCCOC(=O)c2ccc(O)c(O)c2)[C@H](O)CO)OC(C(=O)O)=C[C@@H]1NC(=N)N,Non-toxic,2.9,53,–
CC(=O)N[C@H]1[C@H]([C@H](O)[C@H](O)CO)OC(C(=O)O)=C[C@@H]1N=C(N)N [ZANAMIVIR],Non-toxic,–,–,–
O=C(O)c1ccc2ccccc2c1O [CARBOXYNAPHTHOL],Non-toxic,> 100000,> 100000,–
CC(=O)N[C@H]1[C@H]([C@H](OC(=O)NCCCNC(=O)/C=C/c2ccc(O)c(O)c2)[C@H](O)CO)OC(C(=O)O)=C[C@@H]1NC(=N)N,Non-toxic,41.3,5.1,Stability [4]: Stable; Stability [5]: Stable; Activity [6]: Active; Activity [7]: 100%; Activity [8]: inactive; Activity [9]: Active; Activity [10]: 50%
CC(=O)N[C@H]1[C@H]([C@H](O)[C@H](O)CO)OC(C(=O)O)=C[C@@H]1NC(=N)N [ZANAMIVIR],–,–,3.5,Activity [11]: Active; Activity [6]: inactive; Activity [12]: Active; Activity [13]: inactive; Activity [14]: Active
CC(=O)N[C@H]1[C@H]([C@H](O)[C@H](O)CO)OC(C(=O)OCCCOC(=O)/C=C/c2ccc(O)c(O)c2)=C[C@@H]1NC(=N)N,Non-toxic,2850,25,Stability [15]: Unstable; Stability [16]: Unstable
CC(=O)N[C@H]1[C@H]([C@H](OC(=O)NCCCO)[C@H](O)CO)OC(C(=O)O)=C[C@@H]1NC(=N)N,Non-toxic,11.7,105,EC50 [17]: 820 nM
CC(=O)N[C@H]1[C@H]([C@H](O)[C@H](O)CO)OC(C(=O)OCCCOC(=O)/C=C/c2ccc3c(c2)OCO3)=C[C@@H]1NC(=N)N,Non-toxic,3990,28,–
CC(=O)N[C@H]1[C@H]([C@H](O)[C@H](O)CO)OC(C(=O)OCCCOC(=O)c2ccc3ccccc3c2O)=C[C@@H]1NC(=N)N,Non-toxic,590,–,Stability [18]: Unstable; Stability [19]: Unstable
CC(=O)N[C@H]1[C@H]([C@H](OC(=O)NCCCOC(=O)c2ccc3ccccc3c2O)[C@H](O)CO)OC(C(=O)O)=C[C@@H]1NC(=N)N,Non-toxic,0.7,50,–
O=C(O)/C=C/c1ccc(O)c(O)c1 [CAFFEIC ACID],Non-toxic,> 100000,> 100000,Activity [20]: Dose-dependent effect; Activity [13]: inactive; Activity [14]: Active; Activity [21]: Dose-dependent effect
CC(=O)N[C@H]1[C@H]([C@H](OC(=O)NCCCOC(=O)c2cc(N)ccc2O)[C@H](O)CO)OC(C(=O)O)=C[C@@H]1NC(=N)N,Non-toxic,8.6,3.3,Activity [11]: Active; EC50 [17]: 430 nM; Activity [6]: inactive; Activity [20]: Dose-dependent effect; Stability [18]: Unstable; Activity [12]: Active; Activity [14]: Active; Activity [21]: Dose-dependent effect
CC(=O)N[C@H]1[C@H]([C@H](OC(=O)NCCCOC(=O)/C=C/c2ccc3c(c2)OCO3)[C@H](O)CO)OC(C(=O)O)=C[C@@H]1NC(=N)N,Non-toxic,5.4,66,–
CC(=O)N[C@H]1[C@H]([C@H](OC(=O)NCCCOC(=O)/C=C/c2ccc(O)c(O)c2)[C@H](O)CO)OC(C(=O)O)=C[C@@H]1NC(=N)N,Non-toxic,2.9,1.4,Activity [11]: Active; Activity [22]: inactive; EC50 [17]: 50 nM; Stability [23]: Unstable; Activity [6]: Active; Activity [20]: Dose-dependent effect; Activity [7]: Active; Stability [18]: Unstable; Activity [12]: Active; Stability [24]: Unstable; Activity [8]: 40%; Activity [14]: Active; Activity [21]: Dose-dependent effect; Activity [10]: Active; Ratio EC50 [25]: 13
CC(=O)N[C@H]1[C@H]([C@H](O)[C@H](O)CO)OC(C(=O)OCCCOC(=O)c2cc(N)ccc2O)=C[C@@H]1NC(=N)N,Non-toxic,996,16,–
O=C(O)/C=C/c1ccc2c(c1)OCO2,Non-toxic,> 100000,> 100000,Activity [20]: Dose-dependent effect; Activity [21]: Dose-dependent effect
Nc1ccc(O)c(C(=O)O)c1 [MESALAMINE],Non-toxic,> 100000,> 100000,Activity [20]: Dose-dependent effect; Activity [14]: Active; Activity [21]: Dose-dependent effect
